Measurements published in PMC11567786 (ACS chemical biology, 2024).

Assays:
Sm-EboD [1] = target: T1, Sm-EboD (Sporocytophaga myxococcoides, UniProt P0DY70); experiment: TLC, product formation; assay type: biochemical; conditions: NAD+, Co2+; Tris-HCl pH 7.5; 37°C
T1 sequence (P0DY70 1-387): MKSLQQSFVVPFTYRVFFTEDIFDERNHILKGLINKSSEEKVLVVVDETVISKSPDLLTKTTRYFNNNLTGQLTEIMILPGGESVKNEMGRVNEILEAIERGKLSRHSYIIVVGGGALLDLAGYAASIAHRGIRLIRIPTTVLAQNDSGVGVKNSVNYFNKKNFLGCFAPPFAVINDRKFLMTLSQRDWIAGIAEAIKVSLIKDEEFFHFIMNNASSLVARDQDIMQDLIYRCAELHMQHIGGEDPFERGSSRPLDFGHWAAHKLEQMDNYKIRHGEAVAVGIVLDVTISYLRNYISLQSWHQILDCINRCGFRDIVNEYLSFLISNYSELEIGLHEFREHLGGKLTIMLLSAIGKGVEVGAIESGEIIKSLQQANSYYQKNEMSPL

Sm-EboD [2] = target: T1, Sm-EboD; experiment: large-scale reaction, HR-MS, 1D and 2D NMR of isolated product; assay type: biochemical; conditions: NAD+, Co2+; Tris-HCl pH 7.5; 37°C

Compound | TLC, product formation (Sm-EboD [1]) | large-scale reaction, HR-MS, 1D and 2D NMR of isolated product (Sm-EboD [2])
O=P(O)(O)OC[C@H]1OC(O)[C@@H](O)[C@@H](O)[C@@H]1O (some centres unmarked) [Man6P] | gave the same product with an even better conversion rate | –
O=C1C[C@@H](O)[C@@H](O)[C@@H](O)[C@@H]1O [DEI, 2-deoxy-4-epi-scyllo-inosose] | – | revealed the identity of the compound to be 2-deoxy-4-epi-scyllo-inosose (DEI)
